Laboratory results published in US20050148495A1, “Methods and materials including for treating acne” (priority 2003, published 2005).
Converted amounts (≈) assume the structure as drawn. Where two headings read alike, the source gives them in different places. Non-standard residues stand in square brackets, D forms with d. Residues, ends and D or L forms follow the SMILES beside them. d1Nal = N[C@H](Cc1cccc2ccccc12)C(=O)O

Key:
[1] = system: guinea pigs, Crl:(HA)BR (Albino Hartley); assay: Guinea pig sensitization (maximization) test; type: in vivo
Procedure: A sensitization (maximization) study was performed to evaluate the potential of XMP.629 to elicit skin sensitization reactions, such as allergic contact dermatitis, in guinea pigs via intradermal injection and topical patch applications. Procedures for conducting dermal studies that determine the potential of substances to induce delayed contact hypersensitivity are well-known and are described, for example, in Magnusson, B. et al., Allergic Contact Dermatitis in the Guinea Pig, Charles C. Thomas Publishing, Springfield, Ill., 1970 and Klecak, G., “Test Methods for Allergic Contact Dermatitis in Animals”, Dermatoxicology, 5th Edition, Taylor & Francis Publishing, Washington D.C., pages 437-459, the disclosures of which are incorporated herein by reference. A total of forty two-month old guinea pigs, twenty male and twenty female, from the strain CrI:(HA)BR(Albino Hartley) were employed for the entire regimen of the sensitization study.
First, a preliminary range-finding test was conducted to determine the test concentration of XMP.629 to be used in the second test, induction phase intradermal injection and topical patch application tests. The range-finding test was performed (i) intradermally on two guinea pigs (one male and one female) by injecting concentrations of 2, 4, 8, 16, and 20 mg/mL XMP.629; and (ii) topically on three guinea pigs (two males and one female) by administering patches containing concentrations of 5, 10, 15, and 20 mg/mL XMP.629. […] Topical patches were prepared by spreading a thick even layer of 0.4 mL of XMP.629 over a 2×2 cm of Whatman No.3 filter paper. Topical patches were applied to the torso of the guinea pig and covered by an overlapping plastic adhesive tape followed by additional wrapping tape. After a 24 hour exposure period, the patches were removed and the application sites were washed to removed any excess XMP.629 that may be present. […] Intradermal injection sites and topical application sites were evaluated using a sensitization grade rating. […] Each site could attain a maximum possible score of 3, as scored according to the rating listed below: • 0=No reaction • 1=Scattered mild erythema • 2=Moderate and diffuse erythema • 3=Intense erythema and edema
The second induction phase test was conducted as a two-stage operation with intradermal injections initially being administered followed one week later by exposure to a closed patch. […] Following a period of 24 and 48 hours, evaluations of the injection area were recorded. […] Dermal irritation scores of one or higher were recorded for doses of 8 mg/mL of XMP.629.
A third, challenge (maximization) test was performed two weeks (day 22) after initiation of the second, induction phase tests. […] Patches were sealed to the flanks for approximately 24 hours before observations were recorded.

[2] = system: P. acnes; conditions: for MBC Range: in µg/mL
Procedure: An in vitro assessment of antibiotic activity in XMP.629 and various known antibiotics against a representative panel of bacterial strains associated with acne was conducted. A broth dilution methodology was employed using guidelines established by National Committee for Clinical Laboratory Standards (NCCLS) for anaerobic organisms to establish an antibacterial profile for XMP.629. Assays to determine the minimal bactericidal concentrations (MBC) and minimal inhibitory concentration (MIC) were conducted for XMP.629 and other known antibiotics.
Inoculum from a representative panel of bacterial strains associated with acne, such as P. acnes, P. avidum, P. granulosum, and Staphylococcus epidermis was prepared by suspending approximately 5-10 isolated bacterial colonies in pre-reduced MicroScan® Inoculum Water (Dade Behring, Deerfield, Ill.), and growing the bacterial suspension to log phase (approximately 48 hrs). An inoculum of between 1-5×10^6/mL was achieved by adding 100 μL of the suspension to 25 mL Brain Heart Infusion Broth (BHI) (Anaerobe Systems, Morgan Hill, Calif.).
A stock solution of XMP.629 dissolved in water at a concentration of 4.0 mg/mL was prepared. Dilute solutions of XMP.629 at concentrations ranging from about 1.25 to about 160 μg/mL were made in either water or formulation buffer (130 mM sodium chloride, 0.2% P103 (poloxamer 333), and 0.10% EDTA, pH 7.3).
Control tubes containing only water or formulation buffer were prepared for each isolate. Initial growth controls were determined by removing 10 μL from the water control tube and diluting it by 100 fold. From this dilution, 10 μL was used for inoculation and for spreading over the surface onto Laked Blood Agar (LBA) (Anaerobe Systems, Morgan Hill, Calif.) plates. The tubes and plates were incubated in an anaerobic atmosphere at 37° C. for 48 h.

[3] = ATCC 6919, Formulation Buffer Solvent, Study 1
[4] = ATCC 6919, Formulation Buffer Solvent, Study 2
[5] = ATCC 6919, Water Solvent, Study 1
[6] = ATCC 6919, Water Solvent, Study 2
[7] = ATCC 6919, XMP.629 composition of Example 5 (Table 12)
[8] = ATCC 11827, Formulation Buffer Solvent, Study 1
[9] = ATCC 11827, Formulation Buffer Solvent, Study 2
[10] = ATCC 11827, Water Solvent, Study 1
[11] = ATCC 11827, Water Solvent, Study 2
[12] = ATCC 11828, composition of Example 5
[13] = Clindamycin Resistant C678, composition of Example 5
[14] = Clindamycin Resistant C767, composition of Example 5
[15] = Clindamycin Resistant C768, composition of Example 5
[16] = Clindamycin Resistant C769, composition of Example 5
[17] = Clindamycin Resistant C770, composition of Example 5
[18] = P. acnes strains of Table 7, composition of Example 5
[19] = P. acnes, Clindamycin resistant, 16 strains
[20] = P. acnes, Clindamycin sensitive, 20 strains
[21] = Propionibacterium acnes, 36 strains/clinical isolates, formulation buffer
[22] = RMA 9833, Formulation Buffer Solvent, Study 1
[23] = RMA 9833, Formulation Buffer Solvent, Study 2
[24] = RMA 9833, Water Solvent, Study 1
[25] = RMA 9833, Water Solvent, Study 2
[26] = RMA 9833, composition of Example 5
[27] = RMA 12689, Formulation Buffer Solvent, Study 1
[28] = RMA 12689, Formulation Buffer Solvent, Study 2
[29] = RMA 12689, Water Solvent, Study 1
[30] = RMA 12689, Water Solvent, Study 2
[31] = RMA 12689, composition of Example 5
[32] = RMA 12732, Formulation Buffer Solvent, Study 1
[33] = RMA 12732, Formulation Buffer Solvent, Study 2
[34] = RMA 12732, Water Solvent, Study 1
[35] = RMA 12732, Water Solvent, Study 2
[36] = RMA 12908, Formulation Buffer Solvent, Study 1
[37] = RMA 12908, Formulation Buffer Solvent, Study 2
[38] = RMA 12908, Water Solvent, Study 1
[39] = RMA 12908, Water Solvent, Study 2
[40] = RMA 12908, composition of Example 5
[41] = RMA 13399, Formulation Buffer Solvent, Study 1
[42] = RMA 13399, Formulation Buffer Solvent, Study 2
[43] = RMA 13399, Water Solvent, Study 1
[44] = RMA 13399, Water Solvent, Study 2
[45] = UD 738, composition of Example 5
[46] = XMP.629 composition of Example 5 (Table 12), P. acnes strains of Table 7

CC(C)C[C@@H](NC(=O)[C@H](N)CCCCN)C(=O)N[C@H](Cc1ccccc1)C(=O)N[C@H](CCCNC(=N)N)C(=O)N[C@H](Cc1cccc2ccccc12)C(=O)N[C@H](CCC(N)=O)C(=O)N[C@H](C)C(=O)N[C@H](CCCCN)C(=O)N[C@H](Cc1cccc2ccccc12)C(N)=O [XMP.629, NH2-lys-leu-phe-arg-(3-(1-naphthyl)-ala)-gln-ala-lys-(3-(1-naphthyl)-ala)-CONH2] (H-[dK][dL][dF][dR][d1Nal][dQ][dA][dK][d1Nal]-NH2)
skin sensitization, overall ([1]; 10 mM sodium acetate solution, topical patch challenge): weak skin sensitizing response | Dermal irritation scores ([1]; doses of 8 mg/mL): one or higher | highest non-irritating dose ([1]; induction phase tests): 4 mg/mL | challenge phase score ([1]; topical patch 4 mg/mL): did not score higher than one | MBC [2, 3]: 1 µg/mL (≈ 0.779 µM) | MIC [2, 3]: 0.5 µg/mL (≈ 0.39 µM) | MBC [2, 4]: 0.50 µg/mL (≈ 0.39 µM) | MIC [2, 4]: 1 µg/mL (≈ 0.779 µM) | MBC [2, 5]: 4 µg/mL (≈ 3.12 µM) | MIC [2, 5]: 2 µg/mL (≈ 1.56 µM) | MBC [2, 6]: 2 µg/mL (≈ 1.56 µM) | MIC [2, 6]: 2 µg/mL (≈ 1.56 µM) | MBC [2, 7]: 2 µg/mL (≈ 1.56 µM) | MIC [2, 7]: 1 µg/mL (≈ 0.779 µM) | MBC [2, 8]: 1 µg/mL (≈ 0.779 µM) | MIC [2, 8]: 0.5 µg/mL (≈ 0.39 µM) | MBC [2, 9]: 1 µg/mL (≈ 0.779 µM) | MIC [2, 9]: 1 µg/mL (≈ 0.779 µM) | MBC [2, 10]: 2 µg/mL (≈ 1.56 µM) | MIC [2, 10]: 2 µg/mL (≈ 1.56 µM) | MBC [2, 11]: 2 µg/mL (≈ 1.56 µM) | MIC [2, 11]: 2 µg/mL (≈ 1.56 µM) | MBC [2, 12]: 2 µg/mL (≈ 1.56 µM) | MIC [2, 12]: 1 µg/mL (≈ 0.779 µM) | MBC [2, 13]: 4 µg/mL (≈ 3.12 µM) | MIC [2, 13]: 1 µg/mL (≈ 0.779 µM) | MBC [2, 14]: 2 µg/mL (≈ 1.56 µM) | MIC [2, 14]: 1 µg/mL (≈ 0.779 µM) | MBC [2, 15]: 4 µg/mL (≈ 3.12 µM) | MIC [2, 15]: 2 µg/mL (≈ 1.56 µM) | MBC [2, 16]: 2 µg/mL (≈ 1.56 µM) | MIC [2, 16]: 1 µg/mL (≈ 0.779 µM) | MBC [2, 17]: 2 µg/mL (≈ 1.56 µM) | MIC [2, 17]: 0.5 µg/mL (≈ 0.39 µM) | MIC90, XMP.629 data reported as MBC values ([2]; P. acnes): 1 µg/mL (≈ 0.779 µM) | MBC Geo. Mean [2, 18]: 2.3 µg/mL (≈ 1.79 µM) | MIC Geo. Mean [2, 18]: 0.95 µg/mL (≈ 0.74 µM) | MBC50 [2, 19]: 1 µg/mL (≈ 0.779 µM) | MBC90 [2, 19]: 2 µg/mL (≈ 1.56 µM) | MBC Range [2, 19]: 1-2 | MBC50 [2, 20]: 1 µg/mL (≈ 0.779 µM) | MBC90 [2, 20]: 2 µg/mL (≈ 1.56 µM) | MBC Range [2, 20]: 0.25-2 | MBC50 [2, 21]: 1 µg/mL (≈ 0.779 µM) | MBC90 [2, 21]: 2 µg/mL (≈ 1.56 µM) | MBC Range ([2]; Propionibacterium acnes, 36 strains/clinical isolates): 0.25-2 | MBC [2, 22]: 1 µg/mL (≈ 0.779 µM) | MIC [2, 22]: 0.5 µg/mL (≈ 0.39 µM) | MBC [2, 23]: 2 µg/mL (≈ 1.56 µM) | MIC [2, 23]: 1 µg/mL (≈ 0.779 µM) | MBC [2, 24]: 2 µg/mL (≈ 1.56 µM) | MIC [2, 24]: 1 µg/mL (≈ 0.779 µM) | MBC [2, 25]: 2 µg/mL (≈ 1.56 µM) | MIC [2, 25]: 2 µg/mL (≈ 1.56 µM) | MBC [2, 26]: 1 µg/mL (≈ 0.779 µM) | MIC [2, 26]: 0.5 µg/mL (≈ 0.39 µM) | MBC [2, 27]: 2 µg/mL (≈ 1.56 µM) | MIC [2, 27]: 1 µg/mL (≈ 0.779 µM) | MBC [2, 28]: 2 µg/mL (≈ 1.56 µM) | MIC [2, 28]: 1 µg/mL (≈ 0.779 µM) | MBC [2, 29]: 4 µg/mL (≈ 3.12 µM) | MIC [2, 29]: 2 µg/mL (≈ 1.56 µM) | MBC [2, 30]: 2 µg/mL (≈ 1.56 µM) | MIC [2, 30]: 2 µg/mL (≈ 1.56 µM) | MBC [2, 31]: 2 µg/mL (≈ 1.56 µM) | MIC [2, 31]: 1 µg/mL (≈ 0.779 µM) | MBC [2, 32]: 2 µg/mL (≈ 1.56 µM) | MIC [2, 32]: 2 µg/mL (≈ 1.56 µM) | MBC [2, 33]: 2 µg/mL (≈ 1.56 µM) | MIC [2, 33]: 2 µg/mL (≈ 1.56 µM) | MBC [2, 34]: 4 µg/mL (≈ 3.12 µM) | MIC [2, 34]: 4 µg/mL (≈ 3.12 µM) | MBC [2, 35]: 2 µg/mL (≈ 1.56 µM) | MIC [2, 35]: 4 µg/mL (≈ 3.12 µM) | MBC [2, 36]: 2 µg/mL (≈ 1.56 µM) | MIC [2, 36]: 2 µg/mL (≈ 1.56 µM) | MBC [2, 37]: 2 µg/mL (≈ 1.56 µM) | MIC [2, 37]: 2 µg/mL (≈ 1.56 µM) | MBC [2, 38]: 4 µg/mL (≈ 3.12 µM) | MIC [2, 38]: 4 µg/mL (≈ 3.12 µM) | MBC [2, 39]: 4 µg/mL (≈ 3.12 µM) | MIC [2, 39]: 2 µg/mL (≈ 1.56 µM) | MBC [2, 40]: 2 µg/mL (≈ 1.56 µM) | MIC [2, 40]: 1 µg/mL (≈ 0.779 µM) | MBC [2, 41]: 1 µg/mL (≈ 0.779 µM) | MIC [2, 41]: 0.5 µg/mL (≈ 0.39 µM) | MBC [2, 42]: 2 µg/mL (≈ 1.56 µM) | MIC [2, 42]: 2 µg/mL (≈ 1.56 µM) | MBC [2, 43]: 4 µg/mL (≈ 3.12 µM) | MIC [2, 43]: 2 µg/mL (≈ 1.56 µM) | MBC [2, 44]: 4 µg/mL (≈ 3.12 µM) | MIC [2, 44]: 4 µg/mL (≈ 3.12 µM) | MBC [2, 45]: 2 µg/mL (≈ 1.56 µM) | MIC [2, 45]: 0.5 µg/mL (≈ 0.39 µM) | MBC50 [2, 46]: 2 µg/mL (≈ 1.56 µM) | MBC90 [2, 46]: 2 µg/mL (≈ 1.56 µM)
